Earlier results as cited in patent US10695734B2, “Microcapsule comprising a polyester-urethane shell and a hydrophilic core material” (BASF SE, priority 2015, dated 2020).
Where a name gives a salt, the structure may show the parent alone.

Details: at 20° C.

| SMILES | water solubility [mg/mL] |
| --- | --- |
| COc1c(Cl)ccc(Cl)c1C(=O)O [dicamba sodium salt] | > 100 |
| O=C(O)CNCP(=O)(O)O [glyphosate potassium salt] | > 500 |
